Measured values: US9598349B2, “Quinone based nitric oxide donating compounds for ophthalmic use” (NICOX SCIENCE IRELAND, priority 2013, dated 2017)
Read-outs that look alike come from different tables or passages of the source.

Key:
[1] = test system: lipidic peroxidation of membrane lipids in rat hepatic microsomes; test: In vitro antioxidant activity (TBARS test); format: biochemical; details: read-out: Antioxidant activity IC50 μM (CL 95%)
Description: The antioxidant properties of compound (1) (example 1), its precursors (3-methyl-3-(2,4,5-trimethyl-3,6-dioxocyclohexa-1,4-dien-1-yl)butanoic acid, described in Example 1 Step 2 (Intermediate 2) and reference antioxidant compounds were assessed after NADPH-induced lipidic peroxidation of membrane lipids in rat hepatic microsomes using the detection of 2-thiobarbituric acid reactive substances (TBARS) by visible spectroscopy.
Hepatic microsomal membranes from male Wistar rats (200-250 g) were prepared by differential centrifugation (8000 g, 20 min; 120000 g, 1 h) in a HEPES/sucrose buffer (10 mM, 250 mM, pH 7.4) and stored at −80° C. Incubation was performed at 37° C. in a Tris-HCl/KCl (100 mM/150 mM, pH 7.4) containing microsomal membranes (2 mg prot/mL), sodium ascorbate (100 μM), and DMSO solutions of the tested compounds.
Lipid peroxidation was initiated by adding ADP-FeCl3 and NADPH (Method A) or 2.5 μM FeSO4 (Method B) (as described by Boschi D. et al., J. Med. Chem. 2006, 49:2886-2897). Aliquots were taken from the incubation mixture at 5, 15, and 30 min and treated with trichloroacetic acid (TCA) 10% w/v.
Lipid peroxidation was assessed by spectrophotometric (543 nm) determination of the TBARS consisting mainly of malondialdehyde (MDA). TBARS concentrations (expressed in nmol/mg protein) were obtained by interpolation with a MDA standard curve. The antioxidant activity of tested compounds was evaluated as the percent inhibition of TBARS production with respect to control samples, using the values obtained after 30 min of incubation. IC50 values were calculated by nonlinear regression analysis.

[2] = test system: hypertonic saline-induced IOP increase; test: IOP lowering activity in hypertonic saline-induced IOP increase in rabbits (Example 11); format: in vivo, New Zealand White rabbits
Description: The Intraocular pressure (IOP) lowering activity of compound (1) (Example 1) was assessed in an animal model of elevated IOP.
(§1) Adults male New Zealand White rabbits weighting 1.8-2.0 Kg were used in the experiments.
(§2) Animals were anesthetized using 20 mg/ml/kg of sodium pentobarbital. The increase in IOP was induced by the injection of 0.1 ml of hypertonic saline solution (5%) into the vitreous bilaterally (Krauss et al., 2011, Orihashi et al., 2005).
IOP was measured using a Tono-Pen XL prior to hypertonic saline injection (basal) and at 30, 60, 90, 120, 240 and 360 min thereafter. Vehicle (5% cremophor-EL; 0.3% DMSO; 0.2 mg/ml Benzalkonium chloride (bac) in PBS pH 6.0,) or compound of the invention were instilled as eye drops immediately after hypertonic saline injection. Eyes were randomly assigned to different treatment groups. Vehicle or compounds of the invention were directly instilled into the conjunctiva pocket at the desired doses. One drop of 0.2% oxybuprocaine hydrochloride (Novesine, Sandoz) diluted 1:1 with saline was instilled in each eye immediately before each set of pressure measurements.
Results are reported in Table 2 in which the ocular hypotensive activity of compound (1) is expressed as mean average of IOP measurements at 60 and 120 minutes following topical administration.

[3] = test system: hypertonic saline-induced IOP increase; test: IOP lowering activity in hypertonic saline-induced IOP increase in rabbits, two concentrations (Example 16); format: in vivo, New Zealand White rabbits; details: for IOP change (mmHg): versus vehicle and versus basal IOP
Description: The present study evaluated the intraocular pressure lowering effect of single applications of two different concentrations (1% and 0.3%) of compound (1) in rabbits with experimental increase in IOP.
as §1
The transient increase in IOP was induced by the injection of 0.1 ml of hypertonic saline solution (5%) into the vitreous bilaterally (Krauss et al., 2011, Orihashi et al., 2005).
IOP was measured using a Tono-Pen XL prior to hypertonic saline injection (basal) and at 30, 60, 120 and 240 min thereafter. Vehicle (5% cremophor-EL; 0.3% DMSO; 0.2 mg/ml Benzalkonium chloride in PBS pH 6.0) or compound was instilled as eye drops immediately after hypertonic saline injection. Eyes were randomly assigned to different treatment groups. Vehicle and compound were directly instilled into the conjunctiva pocket at the desired doses. One drop of 0.4% oxybuprocaine hydrochloride (Novesine, Sandoz) was instilled in each eye immediately before each set of pressure measurements.
Results are reported in Table 3 and they are expressed as IOP change (at 60 and 120 minutes following topical administration) versus vehicle and versus IOP at basal before hypertonic saline injection.

[4] = test system: hypertonic saline-induced IOP increase; test: IOP lowering activity in hypertonic saline-induced IOP increase in rabbits, versus ISMN (Example 17); format: in vivo, New Zealand White rabbits; details: for IOP change (mmHg): dose 1%, versus vehicle and versus basal IOP
Description: The present study evaluated the intraocular pressure lowering effect of single application of compound (15) (Example 12) and of ISMN (isosorbide-5-mononitrate) used as reference compound, in an animal model of elevated IOP.
as §1, §2
IOP was measured using a Tono-Pen XL prior to hypertonic saline injection (basal) and at 30, 60, 90, 120, 240 and 360 min thereafter. Vehicle (5% cremophor-EL; 0.3% DMSO; 0.2 mg/ml Benzalkonium chloride in PBS pH 6.0,) or tested compound was instilled as eye drops immediately after hypertonic saline injection. Eyes were randomly assigned to different treatment groups. Vehicle or compounds were directly instilled into the conjunctiva pocket at the desired doses. One drop of 0.2% oxybuprocaine hydrochloride (Novesine, Sandoz) diluted 1:1 with saline was instilled in each eye immediately before each set of pressure measurements.
Results are reported in Table 4 and they are expressed as IOP change (at 30 and 60 minutes following topical administration) versus vehicle and versus IOP at basal before hypertonic saline injection.

[5] = test system: lipidic peroxidation of membrane lipids in rat hepatic microsomes; details: Method B; values from Chegaev et al. (footnotes b, c); read-out: Antioxidant activity IC50 μM (CL 95%); cited from earlier work
[6] = Method A: lipid peroxidation induced by ADP-FeCl3 and NADPH, inhibition of TBARS production after 30 min incubation at 37° C.

In the case of `O=C(O)/C=C/c1ccc(O)c(O)c1` [Caffeic acid, reference compound], the IC50 ([1]; Method B: lipid peroxidation induced by FeSO4 and ascorbic acid, inhibition of TBARS production after 30 min incubation at 37° C.) is reported as 33 µM.
In the case of `CC1=C(C)C(=O)C(C(C)(C)CC(=O)OCCCCO[N+](=O)[O-])=C(C)C1=O` [Compound (1), 4-(nitrooxy)butyl 3-methyl-3-(2,4,5-trimethyl-3,6-dioxocyclohexa-1,4-dienyl)butanoate], the “IOP (mmHg)” value ([2]; 60 minutes following topical administration (eye drops)) is reported as 29 ± 7.8 mmHg, the “IOP (mmHg)” value ([2]; 120 minutes following topical administration (eye drops)) is reported as 18.9 ± 4.1 mmHg and the “IOP change (mmHg)” value ([3]; dose 0.3%, 60 minutes) is reported as −5.5 ± 3.1 mmHg. The “IOP change (mmHg)” value ([3]; dose 0.3%, 120 minutes) was −5.7 ± 2.1 mmHg, the “IOP change (mmHg)” value ([3]; dose 1%, 60 minutes) was −9.1 ± 3.4 mmHg and the “IOP change (mmHg)” value ([3]; dose 1%, 120 minutes) was −9.5 ± 2.2 mmHg. The “IOP reduction (in words)” value ([3]; single application, both doses (1% and 0.3%)) was “significant IOP reduction” and the IC50 [1, 6] was 28 µM.
In the case of `CC1=C(C)C(=O)C(C(C)(C)CC(=O)OCCCC[C@@H](CO[N+](=O)[O-])O[N+](=O)[O-])=C(C)C1=O` [Compound (15), (S)-5,6-bis(nitrooxy)hexyl 3-methyl-3-(2,4,5-trimethyl-3,6-dioxocyclohexa-1,4-dienyl)butanoate], the “IOP change (mmHg)” value ([4]; 30 minutes) is reported as −6.5 ± 2.6 mmHg, the “IOP change (mmHg)” value ([4]; 60 minutes) is reported as −4.9 ± 2.4 mmHg and the “IOP reduction compared to ISMN (in words)” value ([4]; single application, 1%) is reported as “significantly higher IOP reduction as compared to ISMN treated group”.
In the case of `CC1=NN(c2ccccc2)C(=O)C1` [Edavarone], the IC50 [5] is listed as 17 µM.
For `COc1cc(/C=C/C(=O)O)ccc1O` [Ferulic acid, reference compound], the IC50 ([1]; Method B, footnote a: tested at 1 mM concentration) was 50.5 ± 0.4 µM.
For `O=[N+]([O-])O[C@@H]1CO[C@H]2[C@@H]1OC[C@@H]2O` [ISMN, isosorbide-5-mononitrate, reference compound], the “IOP change (mmHg)” value ([4]; 30 minutes) was −2.6 ± 3.5 mmHg and the “IOP change (mmHg)” value ([4]; 60 minutes) was −0.7 ± 2.9 mmHg.
For `CC1=C(C)C(=O)C(C(C)(C)CC(=O)O)=C(C)C1=O` [Intermediate 2, 3-methyl-3-(2,4,5-trimethyl-3,6-dioxocyclohexa-1,4-dien-1-yl)butanoic acid], the IC50 [1, 6] was 157 µM.
For `COc1ccc2[nH]cc(CCNC(C)=O)c2c1` [Melatonin], the IC50 [5] is listed as 476 µM.
